# Assays:
# [1] = system: xyloglucan endotransglycolase; experiment: Xyloglucan endotransglycolase (XET) response induced in protoplasts of Rubus; type: cell-based; conditions: 50 nM, in 20 minutes
# Procedure: Experimental elicitation conditions. 2.10^6 protoplasts in 1 ml Tris-HCl buffer (pH 4.8) are incubated in the presence, or not, of an elicitor (50 nM) or of a hormone (50 nM): mannuronan oligomer of DP4 or glucuronan oligomer of DP8 or gibberellin GA3. After 20, 40, 60, 100 and 120 minutes of interaction, the protoplasts are recovered by centrifugation, then subjected to enzymatic extraction.
# Methodology: measurement of XET activity is carried out in the wells of microtitration plates in 4 stages. Stage 1: immobilization of the acceptor, i.e. the neoglycoprotein XXLG≈BSA. Stage 2: introduction of the reaction medium (XET enzymatic extraction (equivalent to 1 μg of proteins) substrate marked DIG, i.e. XG≈DIG in the Tris-HC1 buffer, pH=7, 25 mM). Stage 3: immunomarking according to the anti-DIG marked peroxydase sequence, anti-peroxydase marked peroxydase. Stage 4: dosage of the peroxydase activity in a citrate-phosphate buffer ([…], pH 5.5).
# The peroxydase activity is measured at 492 nm. At least 3 curves of peroxydase activity are traced per experimental condition, and the experiments are carried out using 3 protoplast suspensions. The XET activity is measured by the slope (ΔA 492) of the curve deduced by linear regression from 9 peroxydase kinetics curves.
# [2] = system: 1,3β-D-glucanase; experiment: 1,3β-D-glucanase response induced in the protoplasts of Rubus; type: cell-based, Rubus fruticosus L.; conditions: for 1,3-β-D-glucanase activity (% control): elicitor 50 nM, 2.10^6 protoplasts
# Procedure: (§1) Experimental conditions: (1) preparation of protoplasts from cell suspensions of Rubus fruticosus L.; (2) incubation, or not, of n samples of 2.10^6 protoplasts in the presence of “elicitors” (1,4-D-glucuronan polymers and 1,4β-D-galacturonan (400 μg/L) polymers, 1,4β-D-glucuronan oligomers of average DP 8, 1,4β-D-mannuronan oligomers of DP 4, and 1,4β-D-guluronan oligomers of DP 4 (50 nM)); (3) after 20 minutes, the protoplasts whether may be treated or not, are subjected to enzymatic extraction. 2 μg of proteins are used per enzymatic test, and per incubation period. The viability of the protoplasts is maintained at 95% for an experimental period of 6 hours; the Evans blue viability test used verifies the integrity of the plasmalemma.
# Methodology: measurement of activity (1,3β-D-glucanase) is based on the calorimetric dosage (ferricyan test) of the substrate-reducing units (reduced hexamer from laminarin) released during hydrolysis. Based on the kinetics developed, curves are traced whose equations make it possible to calculate the speed of the enzymatic reaction. 2 kinetics, at least, are developed per sample, and per experimental “set”. In general, at least 8 kinematics from samples of 2 independent “sets” are developed.
# Results: the enzymatic activation elicited in the protoplasts is expressed as a % of the activity in the controls.
# [3] = system: 1,4β-D-glucanase; experiment: 1,4β-D-glucanase response induced in protoplasts of Rubus; type: cell-based, Rubus fruticosus L.; conditions: elicitor 50 nM, 20 minutes, 2.10^6 protoplasts
# Procedure: as §1
# Experimental elicitation conditions: identical to those reported above.
# Methodology: measurement of activity (1,4β-D-glucanase) is based on the calorimetric dosage (ferricyan test) described above of the substrate-reducing units (reduced cellopentaose) released during hydrolysis.
Compound,amplification factor of XET activity versus non-elicited protoplasts [1],"1,3-β-D-glucanase activity (% control) ([2]; 20 minutes)",also measured
"oligo 1,4-β-D-mannuronan of DP 4",2.12,122 % control,–
"oligo 1,4-β-D-guluronan of DP 4 [e]",–,146 % control,"1,4β-D-glucanase activity (% control) [3]: 101 % control; effectiveness of 1,3-β-D-glucanase induction among the other products tested ([2]; 50 nM, 20 minutes): most effective"
"1,4β-D-glucuronan polymer",–,–,"amplification factor of 1,3-β-D-glucanase activity in plant protoplasts ([2]; nanomolar concentration, in 20 minutes): 1.3"
"C=C1C[C@]23C[C@@]1(O)CC[C@H]2[C@@]12C=C[C@H](O)[C@](C)(C(=O)O1)[C@H]2[C@@H]3C(=O)O [GA3, gibberellin GA3, reference compound]",1.12,–,–
glucuronan oligomer of DP8,1.62,–,–

# Reference: US7112555B1, “Use of glycuronic polysaccharides and oligosaccharides as phytosanitary products and/or fertiliser” (Centre National de la Recherche Scientifique, priority 1999, dated 2006)
